Assay results taken from US9364496B2 (ONCOGENEX TECHNOLOGIES INC., priority 2013, dated 2016).
“And” between values parts separate entries of the source, which are not always exact repeats. Equal values may be shown once. Oligonucleotides are written 5' to 3', each unit as a sugar letter and its base; * is a phosphorothioate linkage, no mark a phosphodiester; rarer units and linkages stand in square brackets, end groups in braces. Plain capitals give the bases only. e = 2'-O-(2-methoxyethyl) (MOE); [5mC] = 5-methylcytosine; d = 2'-deoxy (DNA)

Columns and labels:
[1] = system: RPMI 8226 (human myeloma) xenograft; assay: In vivo activity of custirsen with Velcade, RPMI 8226 xenograft (Example 14); details: for weight / Δ weight / volume / Δ volume / % of baseline / Δ %: later day (day not given); for volume / Δ volume: tumor; for % of baseline / Δ %: weight
Procedure: The cells were implanted subcutaneously into female SCID mice with 7×10^6 cells inoculum.
Tumors and body weights were measured weekly until termination of the study on day 71. Response to treatment was evaluated for tumor growth inhibition (TGI) and tumor growth delay (TGD).
70 CB.17 SCID female mice, 4-6 weeks old, 16-20 grams, obtained from Harlan animal breeding center.
Sample from the cell suspension was taken for counting (0.3 ml in duplicates for CEDEX) before spun down. Cell viability was 85.6% and live cell concentration was 167×10^5 cells/ml. The pellet was resuspended in HBSS to a final volume of 8 ml.
Tumors were implanted subcutaneously with RPMI-8226 cells into the right flank of the mouse on Day 0. Each animal received a s.c. injection 7×10^6 cells in 0.1 ml suspension. On day 20, mice were sorted by the optimal tumor volume ([…]) and were allocated into 5 groups of 10 mice. Mice were individually tagged and their tumor volume and body weight were monitored weekly during the study. Tumor size was measured by caliper and calculated using the formula: […]
The treatment started on […] (0.2 ml per 20 grams v/w) and continued till day 52, after which the remaining mice were left for observation until day 71.

ovarian cancer = format: in vivo, human; details: each group; loading doses then custirsen with a chemotherapeutic agent
Excerpt: At least 50 ovarian cancer patients are separated into two groups.

renal cancer = format: in vivo, human; details: each group; loading doses then custirsen with a chemotherapeutic agent
Excerpt: At least 50 renal cancer patients are separated into two groups.

melanoma = format: in vivo, human; details: each group; loading doses then custirsen with a chemotherapeutic agent
Excerpt: At least 50 melanoma patients are separated into two groups.

[2] = in vivo
[3] = Phase I dose-escalation Study OGX-011-01, custirsen with neoadjuvant hormone therapy, prostate cancer patients; details: 40 mg to 640 mg custirsen, repeated doses with neoadjuvant hormone therapy
[4] = OGX 40 ip qd*5, twk, group Mean, n 9, vs Day 20
[5] = OGX 40 ip qd*5, twk, group Mean, n 10
[6] = OGX 40 ip qd*5, twk, group Mean, n 10, vs Day 20
[7] = OGX 40 ip qd*5, twk, individual mouse, listed as OGX
[8] = OGX 40 ip qd*5, twk, individual mouse, vs Day 20, listed as OGX
[9] = OGX 40 ip qd*5, twk, group mean

Custirsen: anti-clusterin antisense oligonucleotide CAGCAGCAGAGTCTTCATCAT, phosphorothioate backbone, 2′-O-methoxyethyl at nucleotides 1-4 and 18-21, 5-methylcytosines at 1, 4, 19 (antisense e[5mC]*eA*eG*e[5mC]*dA*dG*dC*dA*dG*dA*dG*dT*dC*dT*dT*dC*dA*eT*e[5mC]*eA*eT; listed as Homo sapiens)
Day 45 Δ volume [1, 4]: 381.9 | Day 45 Δ weight [1, 4]: 1.0 | Day 20 volume [1, 5]: 142.8 | Day 20 weight [1, 5]: 18.5 | Day 27 % of baseline (weight) [1, 5]: 102.6% | Day 27 volume [1, 5]: 219.2 | Day 27 weight [1, 5]: 19.0 | Day 34 % of baseline (weight) [1, 5]: 95.3% | Day 34 volume [1, 5]: 263.1 | Day 34 weight [1, 5]: 17.7 | Day 27 Δ % (weight) [1, 6]: 2.6% | Day 27 Δ volume [1, 6]: 76.4 | Day 27 Δ weight [1, 6]: 0.4 | Day 34 Δ % (weight) [1, 6]: −4.7% | Day 34 Δ volume [1, 6]: 120.3 | Day 34 Δ weight [1, 6]: −0.8 | Day 20 volume [1, 7]: 119 and 124 and 125 and 139 and 141 and 145 and 151 and 155 and 162 and 169 | Day 20 weight [1, 7]: 16.1 and 17.7 and 17.1 and 20.6 and 19.7 and 18.6 and 18.4 (2×) and 20.0 and 18.9 | Day 27 % of baseline (weight) [1, 7]: 113.2% and 102.5% and 100.3% and 98.7% and 102.4% and 101.7% and 100.5% | Day 27 volume [1, 7]: 96 and 207 and 171 and 249 and 222 and 246 and 319 and 193 and 217 and 271 | Day 27 weight [1, 7]: 18.2 (2×) and 18.0 and 20.8 and 19.7 and 18.4 and 18.9 and 20.3 and 18.6 and 19.0 | Day 34 % of baseline (weight) [1, 7]: 84.3% and 98.1% and 99.6% and 94.5% and 97.3% and 96.5% and 98.9% and 95.3% and 93.3% and 95.4% | Day 34 volume [1, 7]: 98 and 244 and 223 and 257 and 305 and 336 and 371 and 220 and 266 and 312 | Day 34 weight [1, 7]: 13.5 and 17.4 and 17.1 and 19.5 and 19.1 and 18.0 (2×) and 18.2 and 19.0 and 17.2 | Day 41 % of baseline (weight) [1, 7]: 100.4% and 100.3% and 99.5% and 95.8% and 100.1% and 104.4% and 101.6% | Day 41 volume [1, 7]: 454 and 474 and 560 and 267 and 320 and 457 and 410 and 295 and 322 | Day 41 weight [1, 7]: 19.8 and 18.7 and 19.5 and 19.9 and 17.6 and 18.9 and 18.8 and 17.9 and 20.9 | Day 45 % of baseline (weight) [1, 7]: 104.1% and 102.7% and 111.4% and 101.5% and 108.1% and 109.8% | Day 45 volume [1, 7]: 587 and 584 and 826 and 467 and 428 and 490 and 511 and 272 and 579 | Day 45 weight [1, 7]: 20.5 and 19.1 (2×) and 20.6 and 21.1 and 18.7 and 19.2 and 18.8 and 21.9 | Day 27 Δ % (weight) [1, 8]: 13.2% and 2.5% and 4.8% and 1.1% and 0.3% and −1.3% and 2.4% and 1.7% and 0.8% and 0.5% | Day 27 Δ volume [1, 8]: −23.1 and 84.0 and 46.2 and 110.4 and 81.2 and 100.3 and 168.8 and 38.8 and 55.3 and 102.6 | Day 27 Δ weight [1, 8]: 2.1 and 0.4 (2×) and 0.8 and 0.2 (2×) and 0.1 (2×) and −0.3 and 0.3 | Day 34 Δ % (weight) [1, 8]: −15.7% and −1.9% and −0.4% and −5.5% and −2.7% and −3.5% and −1.1% and −4.7% and −6.7% and −4.6% | Day 34 Δ volume [1, 8]: −20.6 and 120.3 and 97.9 and 117.8 and 163.9 and 190.8 and 219.9 and 65.4 and 104.3 and 142.9 | Day 34 Δ weight [1, 8]: −2.5 and −0.3 and −0.1 and −1.1 and −0.5 and −0.6 and −0.2 and −0.9 (2×) and −1.2 | Day 41 Δ % (weight) [1, 8]: 0.4% and 0.3% and 5.9% and −0.5% and −4.2% and 0.1% and 6.0% and 4.4% and 1.6% | Day 41 Δ volume [1, 8]: 313.0 and 328.4 and 409.6 and 112.3 and 157.8 and 288.2 and 286.2 and 170.4 and 183.5 | Day 41 Δ weight [1, 8]: 0.1 (2×) and 1.1 (2×) and −0.1 and −0.8 and 0.0 and 0.8 and 0.3 | Day 45 Δ % (weight) [1, 8]: 4.1% and 2.7% and 11.4% and 5.6% and 1.5% and 1.3% and 8.1% and 9.8% and 6.1% | Day 45 Δ volume [1, 8]: 446.1 and 439.0 and 675.2 and 313.0 and 266.0 and 321.7 and 388.0 and 147.2 and 440.5 | Day 45 Δ weight [1, 8]: 0.8 and 0.5 and 2.1 and 1.1 and 0.3 and 0.2 and 1.4 and 1.7 and 1.3 | weight [1, 9]: 20.5 | Δ weight [1, 9]: 1.6 | volume [1, 9]: 1717.4 | Δ volume [1, 9]: 1572.6 | % of baseline [1, 9]: 108.3% | Δ % [1, 9]: 8.3% | weight [1, 7]: 21.04 and 22.19 and 19.81 and 20.11 | Δ weight [1, 7]: 1.4 (2×) and 2.2 and 1.2 | volume [1, 7]: 2185 and 1918 and 1519 and 2426 | Δ volume [1, 7]: 2043.7 and 1763.0 and 1357.1 and 2257.1 | % of baseline [1, 7]: 106.9% and 111.2% and 107.7% and 106.4% | Δ % [1, 7]: 6.9% and 11.2% and 7.7% and 6.4% | mice died ([1]; custirsen 40 mg/kg group, day 34): one | injections given before treatment was stopped due to toxicity ([1]; custirsen 40 mg/kg, both groups (5 consecutive + 2 on the next week)): 7 injections | tumor growth inhibition by the end of the study ([1]; custirsen 40 mg/kg, either alone or in combination): significantly inhibited tumor growth | cancer condition of patients (ovarian cancer): improves | cancer condition of patients (renal cancer): improves | cancer condition of patients (melanoma): improves | INR values [2]: ≤ 1.5 | reports of grade 2 toxicity for PTT [2]: 2 reports | dose limiting toxicities, deaths, AEs leading to withdrawal [3]: No dose limiting toxicities, deaths, or adverse events (AEs) leading to withdrawal were reported
